Data published in ChEMBL document CHEMBL4665836, “Overcoming β-Lactam resistance in Pseudomonas aeruginosa using non-canonical tobramycin-based antibiotic adjuvants” (2020).

Experiments:
Format in all cases: functional
[1] = test system: Pseudomonas aeruginosa; assay: Potentiation of imipenem-induced antibacterial activity against carbapenem-resistant Pseudomonas aeruginosa 107092 clinical isolate assessed as fold reduction in imipenem MIC at 8 uM in presence of beta-lactamase inhibitor, rele-bactam
[2] = test system: Pseudomonas aeruginosa; assay: Potentiation of ceftazidime-induced antibacterial activity against carbapenem-resistant Pseudomonas aeruginosa PAO750 harboring and mexAB-oprM/mexCD-oprJ/mexEF-oprN/mexJK/mexXY/opmH efflux deficient mutant assessed as ceftazidime MIC at 8 uM by checkerboard assay (reference value: 0.5 ug/ml)
[3] = test system: Pseudomonas aeruginosa; assay: Potentiation of aztreonam-induced antibacterial activity against carbapenem-resistant Pseudomonas aeruginosa 88949 clinical isolate assessed as aztreonam MIC at 8 uM by checkerboard assay (reference value: 32 ug/ml)
[4] = test system: Pseudomonas aeruginosa; assay: Potentiation of ceftazidime-induced antibacterial activity against carbapenem-resistant Pseudomonas aeruginosa 88949 clinical isolate assessed as fold reduction in ceftazidime MIC at 8 uM in presence of beta-lactamase inhibitor, avi-bactam
[5] = test system: Pseudomonas aeruginosa; assay: Potentiation of piperacillin-induced antibacterial activity against wild type Pseudomonas aeruginosa PAO1 assessed as fold reduction in piperacillin MIC at 8 uM
[6] = test system: Pseudomonas aeruginosa; assay: Potentiation of ceftazidime-induced antibacterial activity against carbapenem-resistant Pseudomonas aeruginosa 109084 clinical isolate assessed as fold reduction in ceftazidime MIC at 8 uM in presence of beta-lactamase inhibitor, avi-bactam
[7] = test system: Pseudomonas aeruginosa; assay: Potentiation of ceftazidime-induced antibacterial activity against carbapenem and colistin-resistant Pseudomonas aeruginosa 114228 clinical isolate assessed as ceftazidime MIC at 8 uM by checkerboard assay (reference value: 8 ug/ml)
[8] = test system: Pseudomonas aeruginosa; assay: Potentiation of aztreonam-induced antibacterial activity against carbapenem-resistant Pseudomonas aeruginosa PAO750 harboring mexAB-oprM/mexCD-oprJ/mexEF-oprN/mexJK/mexXY/opmH efflux deficient mutant assessed as aztreonam MIC at 8 uM by checkerboard assay (reference value: 0.5 ug/ml)
[9] = test system: Pseudomonas aeruginosa; assay: Potentiation of imipenem-induced antibacterial activity against carbapenem and colistin-resistant Pseudomonas aeruginosa 91433 clinical isolate assessed as imipenem MIC at 8 uM by checkerboard assay (reference value: 8 ug/ml)
[10] = test system: Pseudomonas aeruginosa; assay: Potentiation of imipenem-induced antibacterial activity against carbapenem-resistant Pseudomonas aeruginosa 259-96918 clinical isolate expressing MBL assessed as imipenem MIC at 8 uM by checkerboard assay (reference value: 64 ug/ml)
[11] = test system: Pseudomonas aeruginosa; assay: Potentiation of ceftazidime-induced antibacterial activity against carbapenem-resistant Pseudomonas aeruginosa 86052 clinical isolate assessed as fold reduction in ceftazidime MIC at 8 uM in presence of beta-lactamase inhibitor, avi-bactam
[12] = test system: Pseudomonas aeruginosa; assay: Potentiation of imipenem-induced antibacterial activity against carbapenem-resistant Pseudomonas aeruginosa 86052 clinical isolate assessed as fold reduction in imipenem MIC at 8 uM in presence of beta-lactamase inhibitor, rele-bactam
[13] = test system: Pseudomonas aeruginosa; assay: Potentiation of imipenem-induced antibacterial activity against carbapenem-resistant Pseudomonas aeruginosa 88949 clinical isolate assessed as fold reduction in imipenem MIC at 8 uM in presence of beta-lactamase inhibitor, rele-bactam
[14] = test system: Pseudomonas aeruginosa; assay: Potentiation of ceftazidime-induced antibacterial activity against wild type Pseudomonas aeruginosa PAO1 assessed as ceftazidime MIC at 8 uM by checkerboard assay (reference value: 2 ug/ml)
[15] = test system: Pseudomonas aeruginosa; assay: Potentiation of imipenem-induced antibacterial activity against carbapenem-resistant Pseudomonas aeruginosa 108590 clinical isolate assessed as imipenem MIC at 8 uM by checkerboard assay (reference value: 16 ug/ml)
[16] = test system: Pseudomonas aeruginosa; assay: Potentiation of imipenem-induced antibacterial activity against carbapenem-resistant Pseudomonas aeruginosa 100036 clinical isolate assessed as imipenem MIC at 8 uM by checkerboard assay (reference value: 8 ug/ml)
[17] = test system: Pseudomonas aeruginosa; assay: Potentiation of aztreonam-induced antibacterial activity against carbapenem-resistant Pseudomonas aeruginosa 101885 clinical isolate assessed as aztreonam MIC at 8 uM by checkerboard assay (reference value: 16 ug/ml)
[18] = test system: Pseudomonas aeruginosa; assay: Potentiation of ceftazidime-induced antibacterial activity against carbapenem-resistant Pseudomonas aeruginosa 88949 clinical isolate assessed as ceftazidime MIC at 8 uM by checkerboard assay (reference value: 64 ug/ml)
[19] = test system: Pseudomonas aeruginosa; assay: Potentiation of imipenem-induced antibacterial activity against carbapenem-resistant Pseudomonas aeruginosa 109084 clinical isolate assessed as fold reduction in imipenem MIC at 8 uM in presence of beta-lactamase inhibitor, rele-bactam
[20] = test system: Pseudomonas aeruginosa; assay: Potentiation of ceftazidime-induced antibacterial activity against carbapenem-resistant Pseudomonas aeruginosa 108590 clinical isolate assessed as fold reduction in ceftazidime MIC at 8 uM in presence of beta-lactamase inhibitor, avi-bactam
[21] = test system: Pseudomonas aeruginosa; assay: Potentiation of aztreonam-induced antibacterial activity against carbapenem-resistant Pseudomonas aeruginosa 100036 clinical isolate assessed as aztreonam MIC at 8 uM by checkerboard assay (reference value: 16 ug/ml)
[22] = test system: Pseudomonas aeruginosa; assay: Potentiation of ceftazidime-induced antibacterial activity against carbapenem-resistant Pseudomonas aeruginosa 264-104354 clinical isolate assessed as ceftazidime MIC at 8 uM by checkerboard assay (reference value: 128 ug/ml)
[23] = test system: Pseudomonas aeruginosa; assay: Potentiation of aztreonam-induced antibacterial activity against carbapenem-resistant Pseudomonas aeruginosa 108590 clinical isolate assessed as aztreonam MIC at 8 uM by checkerboard assay (reference value: 32 ug/ml)
[24] = test system: Pseudomonas aeruginosa; assay: Potentiation of aztreonam-induced antibacterial activity against carbapenem-resistant Pseudomonas aeruginosa PAO200 harboring mexAB-oprM efflux deficient mutant assessed as aztreonam MIC at 8 uM by checkerboard assay (reference value: 0.25 ug/ml)
[25] = test system: Pseudomonas aeruginosa; assay: Potentiation of ceftazidime-induced antibacterial activity against carbapenem-resistant Pseudomonas aeruginosa 107092 clinical isolate assessed as ceftazidime MIC at 8 uM by checkerboard assay (reference value: 128 ug/ml)
[26] = test system: Pseudomonas aeruginosa; assay: Potentiation of imipenem-induced antibacterial activity against carbapenem-resistant Pseudomonas aeruginosa PAO750 harboring mexAB-oprM/mexCD-oprJ/mexEF-oprN/mexJK/mexXY/opmH efflux deficient mutant assessed as imipenem MIC at 8 uM by checkerboard assay (reference value: 4 ug/ml)
[27] = test system: Pseudomonas aeruginosa; assay: Potentiation of imipenem-induced antibacterial activity against carbapenem-resistant Pseudomonas aeruginosa 108590 clinical isolate assessed as fold reduction in imipenem MIC at 8 uM in presence of beta-lactamase inhibitor, rele-bactam
[28] = test system: Pseudomonas aeruginosa; assay: Potentiation of aztreonam-induced antibacterial activity against carbapenem-resistant Pseudomonas aeruginosa 86052 clinical isolate assessed as aztreonam MIC at 8 uM by checkerboard assay (reference value: 64 ug/ml)
[29] = test system: Pseudomonas aeruginosa; assay: Potentiation of imipenem-induced antibacterial activity against carbapenem-resistant Pseudomonas aeruginosa 264-104354 clinical isolate assessed as imipenem MIC at 8 uM by checkerboard assay (reference value: 16 ug/ml)
[30] = test system: Pseudomonas aeruginosa; assay: Potentiation of ceftazidime-induced antibacterial activity against carbapenem-resistant Pseudomonas aeruginosa PAO200 harboring mexAB-oprM efflux deficient mutant assessed as ceftazidime MIC at 8 uM by checkerboard assay (reference value: 1 ug/ml)
[31] = test system: Pseudomonas aeruginosa; assay: Potentiation of ceftazidime-induced antibacterial activity against carbapenem-resistant Pseudomonas aeruginosa 101885 clinical isolate assessed as ceftazidime MIC at 8 uM by checkerboard assay (reference value: 8 ug/ml)

NC[C@H]1O[C@H](O[C@H]2[C@H](OCCCCc3cn(CCCCO[C@@H]4[C@@H](O[C@H]5O[C@H](CO)[C@@H](O)[C@H](N)[C@H]5O)[C@H](N)C[C@H](N)[C@H]4O[C@H]4O[C@H](CN)[C@@H](O)C[C@H]4N)nn3)[C@@H](O[C@H]3O[C@H](CO)[C@@H](O)[C@H](N)[C@H]3O)[C@H](N)C[C@@H]2N)[C@H](N)C[C@@H]1O.O=C(O)C(F)(F)F.O=C(O)C(F)(F)F.O=C(O)C(F)(F)F.O=C(O)C(F)(F)F.O=C(O)C(F)(F)F.O=C(O)C(F)(F)F.O=C(O)C(F)(F)F.O=C(O)C(F)(F)F.O=C(O)C(F)(F)F.O=C(O)C(F)(F)F
fold change (FC) [1]: 16
MIC [2]: 0.06 µg/mL
MIC [3]: 32 µg/mL
fold change (FC) [4]: 16
fold change (FC) [5]: 2
fold change (FC) [6]: 16
MIC [7]: 1 µg/mL
MIC [8]: 0.06 µg/mL
MIC [9]: 4 µg/mL
MIC [10]: 32 µg/mL
fold change (FC) [11]: 16
fold change (FC) [12]: 16
fold change (FC) [13]: 16
MIC [14]: 0.25 µg/mL
MIC [15]: 4 µg/mL
MIC [16]: 4 µg/mL
MIC [17]: 4 µg/mL
MIC [18]: 16 µg/mL
fold change (FC) [19]: 16
fold change (FC) [20]: 16
MIC [21]: 2 µg/mL
MIC [22]: 32 µg/mL
MIC [23]: 8 µg/mL
MIC [24]: 0.03 µg/mL
MIC [25]: 32 µg/mL
MIC [26]: 1 µg/mL
fold change (FC) [27]: 16
MIC [28]: 8 µg/mL
MIC [29]: 4 µg/mL
MIC [30]: 0.13 µg/mL
MIC [31]: 2 µg/mL

Cl.Cl.Cl.Cl.Cl.NC[C@H]1O[C@H](O[C@H]2[C@H](OCCCCCCCCCCCCN3CCN(c4cc5c(cc4F)c(=O)c(C(=O)O)cn5C4CC4)CC3)[C@@H](O)[C@H](N)C[C@@H]2N)[C@H](N)C[C@@H]1O
fold change (FC) [1]: 16
MIC [2]: 0.01 µg/mL
MIC [3]: 8 µg/mL
fold change (FC) [4]: 16
fold change (FC) [5]: 2
fold change (FC) [6]: 16
MIC [7]: 4 µg/mL
MIC [8]: 0.13 µg/mL
MIC [9]: 8 µg/mL
MIC [10]: 16 µg/mL
fold change (FC) [11]: 16
fold change (FC) [12]: 16
fold change (FC) [13]: 16
MIC [14]: 0.25 µg/mL
MIC [15]: 0.5 µg/mL
MIC [16]: 4 µg/mL
MIC [17]: 4 µg/mL
MIC [18]: 32 µg/mL
fold change (FC) [19]: 16
fold change (FC) [20]: 16
MIC [21]: 8 µg/mL
MIC [22]: 64 µg/mL
MIC [23]: 0.13 µg/mL
MIC [24]: 0.03 µg/mL
MIC [25]: 64 µg/mL
MIC [26]: 2 µg/mL
fold change (FC) [27]: 16
MIC [28]: 4 µg/mL
MIC [29]: 8 µg/mL
MIC [30]: 0.13 µg/mL
MIC [31]: 4 µg/mL

NC[C@H]1O[C@H](O[C@H]2[C@H](OCCCCc3cn(CCCCO[C@@H]4[C@@H](O)[C@H](N)C[C@H](N)[C@H]4O[C@H]4O[C@H](CN)[C@@H](O)C[C@H]4N)nn3)[C@@H](O)[C@H](N)C[C@@H]2N)[C@H](N)C[C@@H]1O.O=C(O)C(F)(F)F.O=C(O)C(F)(F)F.O=C(O)C(F)(F)F.O=C(O)C(F)(F)F.O=C(O)C(F)(F)F.O=C(O)C(F)(F)F.O=C(O)C(F)(F)F.O=C(O)C(F)(F)F
fold change (FC) [1]: 16
MIC [2]: 0.13 µg/mL
MIC [3]: 16 µg/mL
fold change (FC) [4]: 16
fold change (FC) [5]: 2
fold change (FC) [6]: 16
MIC [7]: 1 µg/mL
MIC [8]: 0.25 µg/mL
MIC [9]: 8 µg/mL
MIC [10]: 64 µg/mL
fold change (FC) [11]: 16
fold change (FC) [12]: 16
fold change (FC) [13]: 16
MIC [14]: 0.5 µg/mL
MIC [15]: 8 µg/mL
MIC [16]: 4 µg/mL
MIC [17]: 4 µg/mL
MIC [18]: 64 µg/mL
fold change (FC) [19]: 16
fold change (FC) [20]: 16
MIC [21]: 4 µg/mL
MIC [22]: 32 µg/mL
MIC [23]: 16 µg/mL
MIC [24]: 0.06 µg/mL
MIC [25]: 128 µg/mL
MIC [26]: 2 µg/mL
fold change (FC) [27]: 16
MIC [28]: 32 µg/mL
MIC [29]: 8 µg/mL
MIC [30]: 0.25 µg/mL
MIC [31]: 1 µg/mL
